For orientation: IC50 means the concentration that inhibits the measured activity by half. Low readings indicate inhibition by little substance, high ones a need for much substance.

One assay concerns the target T1, CDK2/cyclin A2 (Homo sapiens, UniProt P24941).
T1 construct: purchased Carna Biosciences, Inc. QS S Assist CDK2/Cyclin A2_FP Kit
The assay can be described thus: Human CDK2/cyclin A2 inhibitory activity (QS S Assist CDK2/Cyclin A2_FP Kit, IMAP fluorescence polarization). The format is biochemical. The settings on record: 50% inhibitory concentration against CDK2/cyclin A2, given as class symbol. A digest of the protocol:
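Kinase activity read as fluorescence polarization (485/535 nm) after phosphorylated fluorescent substrate binds IMAP reagent (30 min, RT, dark). Enzyme (2.5 ng/well) reacted 60 min at RT with ATP/substrate/metal in HEPES pH 7.4 buffer with Tween 20 and DTT; no-enzyme wells define 0% activity; IC50 by curve fit.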
Background: In fluorescence polarisation assays a small probe gives low polarisation when free and higher when bound to something large.

The target of a further assay is T2, CDK4/cyclin D3 (Homo sapiens, UniProt P11802).
T2 construct: purchased Carna Biosciences, Inc. QS S Assist CDK4/Cyclin D3_FP Kit
T2 sequence (P11802 whole entry): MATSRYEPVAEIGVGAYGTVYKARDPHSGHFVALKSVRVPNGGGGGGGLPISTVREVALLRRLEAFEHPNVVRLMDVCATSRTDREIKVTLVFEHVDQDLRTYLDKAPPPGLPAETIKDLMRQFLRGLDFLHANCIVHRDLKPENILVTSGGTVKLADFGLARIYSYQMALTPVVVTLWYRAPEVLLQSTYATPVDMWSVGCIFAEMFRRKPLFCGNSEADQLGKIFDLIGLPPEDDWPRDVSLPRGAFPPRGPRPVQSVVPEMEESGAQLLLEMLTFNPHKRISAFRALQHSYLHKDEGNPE
T2 sequence (P30281 whole entry partner): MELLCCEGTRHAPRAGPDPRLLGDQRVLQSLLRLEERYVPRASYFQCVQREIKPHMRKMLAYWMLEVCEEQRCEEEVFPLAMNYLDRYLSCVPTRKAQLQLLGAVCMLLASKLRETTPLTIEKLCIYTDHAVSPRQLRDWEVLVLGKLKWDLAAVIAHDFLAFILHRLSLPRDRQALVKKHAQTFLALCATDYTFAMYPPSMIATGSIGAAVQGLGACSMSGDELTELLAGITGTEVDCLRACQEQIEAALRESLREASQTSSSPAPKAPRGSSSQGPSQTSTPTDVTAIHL
The assay can be described thus: Human CDK4/cyclin D3 inhibitory activity (QS S Assist CDK4/Cyclin D3_FP Kit, IMAP fluorescence polarization). The assay is classed as biochemical. The settings on record: 50% inhibitory concentration against CDK4/cyclin D3, given as class symbol. An outline of the steps:
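IMAP fluorescence polarization kit: CDK4/cyclin D3 at 12.5-25 ng/well with kit ATP/substrate/metal mix in 20 mM HEPES pH 7.4, 0.01% Tween20, 2 mM DTT, 45 min at room temperature. FP read at 485/535 nm after 30 min binding; IC50 from dose-response fit of percent inhibition versus enzyme and no-enzyme controls.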

For `CCCNc1nc([C@@H](C)O)cc2cnc(Nc3ccc4c(n3)CCN(C(=O)CO)C4)nc12` [Compound 1116], the IC50 is no less than 100 nM at CDK2/cyclin A2 and less than 10 nM on CDK4/cyclin D3.
The matching figures for `CCNc1nc([C@@H](C)O)cc2cnc(Nc3ccc4c(n3)CCN(C(=O)CO)C4)nc12` [Compound 1117]: no less than 100 nM and 10 to 100 nM.
With `C[C@@H](O)c1cc2cnc(Nc3ccc4c(n3)CCN(C(=O)CO)C4)nc2c(N[C@H]2CCCOC2)n1` [Compound 1118], the IC50 at CDK2/cyclin A2 is no less than 100 nM; against CDK4/cyclin D3 it was less than 10 nM.
For `CCCNc1nc([C@@H](C)OC)cc2cnc(Nc3ccc4c(n3)CCN(CCO)C4)nc12` [Compound 1119], in that order: no less than 100 nM and less than 10 nM.
`CCNc1nc([C@@H](C)OC)cc2cnc(Nc3ccc4c(n3)CCN(CCO)C4)nc12` [Compound 1120]: the IC50 is no less than 100 nM against CDK2/cyclin A2 and 10 to 100 nM against CDK4/cyclin D3.
For `CO[C@H](C)c1cc2cnc(Nc3ccc4c(n3)CCN(CCO)C4)nc2c(N[C@H]2CCCOC2)n1` [Compound 1121], in that order: no less than 100 nM and less than 10 nM.
The matching figures for `OCCN1CCc2nc(Nc3ncc4cc(C5CCOC5)nc(N[C@H]5CCCOC5)c4n3)ccc2C1` (stereo partly drawn) [Compound 1122]: no less than 100 nM and less than 10 nM.
In the case of `CCCNc1nc([C@@H](C)O)cc2cnc(Nc3ccc4c(n3)CCN(CCO)C4)nc12` [Compound 1123], the half-inhibitory concentration (IC50) was no less than 100 nM on CDK2/cyclin A2 and 10 to 100 nM at CDK4/cyclin D3.
The matching figures for `CCNc1nc([C@@H](C)O)cc2cnc(Nc3ccc4c(n3)CCN(CCO)C4)nc12` [Compound 1124]: no less than 100 nM and 10 to 100 nM.
For `C[C@@H](O)c1cc2cnc(Nc3ccc4c(n3)CCN(CCO)C4)nc2c(N[C@H]2CCCOC2)n1` [Compound 1125], in that order: no less than 100 nM and less than 10 nM.
For `C[C@@H](O)c1cc2cnc(Nc3ccc(CN4CCC(O)CC4)cn3)nc2c(N[C@H]2CCCOC2)n1` [Compound 1126], in that order: no less than 100 nM and less than 10 nM.
Regarding `C[C@@H](O)c1cc2cnc(Nc3ccc(CN4CCCC(O)C4)cn3)nc2c(NC(C)(C)C)n1` (stereo partly drawn) [Compound 1127], the IC50 against CDK2/cyclin A2 was no less than 100 nM; against CDK4/cyclin D3 it was less than 10 nM.
`C[C@@H](O)c1cc2cnc(Nc3ccc(CN4CCCC(O)C4)cn3)nc2c(N[C@H]2CCCOC2)n1` (stereo partly drawn) [Compound 1128]: the IC50 against CDK2/cyclin A2 was no less than 100 nM; against CDK4/cyclin D3 it was less than 10 nM.
The matching figures for `CC1(c2cc3cnc(Nc4ccc5c(n4)CCN(CCO)C5)nc3c(N[C@H]3CCCOC3)n2)COC1` [Compound 1129]: no less than 100 nM and less than 10 nM.
As to `CCCNc1nc([C@@H](C)OC)cc2cnc(Nc3ccc4c(n3)CCN(CCN(C)C)C4)nc12` [Compound 1130], the half-inhibitory concentration (IC50) against CDK2/cyclin A2 is no less than 100 nM; at CDK4/cyclin D3, 10 to 100 nM.
The matching figures for `CCNc1nc([C@@H](C)OC)cc2cnc(Nc3ccc4c(n3)CCN(CCN(C)C)C4)nc12` [Compound 1131]: no less than 100 nM and 10 to 100 nM.
In the case of `CO[C@H](C)c1cc2cnc(Nc3ccc4c(n3)CCN(CCN(C)C)C4)nc2c(N[C@H]2CCCOC2)n1` [Compound 1132], the half-maximal inhibitory concentration (IC50) was no less than 100 nM against CDK2/cyclin A2 and less than 10 nM on CDK4/cyclin D3.
For `CCCNc1nc([C@@H](C)OC)cc2cnc(Nc3ccc4c(n3)CCN(C(=O)OCCN(C)C)C4)nc12` [Compound 1133], in that order: no less than 100 nM and less than 10 nM.
For `CCNc1nc([C@@H](C)OC)cc2cnc(Nc3ccc4c(n3)CCN(C(=O)OCCN(C)C)C4)nc12` [Compound 1134], in that order: no less than 100 nM and less than 10 nM.
The matching figures for `CO[C@H](C)c1cc2cnc(Nc3ccc4c(n3)CCN(C(=O)OCCN(C)C)C4)nc2c(N[C@H]2CCCOC2)n1` [Compound 1135]: no less than 100 nM and less than 10 nM.
Consider `CN(C)CCOC(=O)N1CCc2nc(Nc3ncc4cc(C5CCOC5)nc(N[C@H]5CCCOC5)c4n3)ccc2C1` (stereo partly drawn) [Compound 1136], for which the IC50 was no less than 100 nM on CDK2/cyclin A2 and less than 10 nM against CDK4/cyclin D3.
For `CN(C)CCOC(=O)N1CCc2nc(Nc3ncc4cc(C5(C)COC5)nc(N[C@H]5CCCOC5)c4n3)ccc2C1` [Compound 1137], the concentration for half-maximal inhibition (IC50) was no less than 100 nM on CDK2/cyclin A2 and less than 10 nM against CDK4/cyclin D3.
As for `CCCNc1nc([C@@H](C)O)cc2cnc(Nc3ccc4c(n3)CCN(CCN(C)C)C4)nc12` [Compound 1138], the concentration for half-maximal inhibition (IC50) was no less than 100 nM against CDK2/cyclin A2 and less than 10 nM against CDK4/cyclin D3.
`CCNc1nc([C@@H](C)O)cc2cnc(Nc3ccc4c(n3)CCN(CCN(C)C)C4)nc12` [Compound 1139]: the IC50 on CDK2/cyclin A2 is no less than 100 nM; against CDK4/cyclin D3 it was less than 10 nM.
Turning to `C[C@@H](O)c1cc2cnc(Nc3ccc4c(n3)CCN(CCN(C)C)C4)nc2c(N[C@H]2CCCOC2)n1` [Compound 1140], the IC50 is no less than 100 nM at CDK2/cyclin A2 and less than 10 nM against CDK4/cyclin D3.
The matching figures for `CCCNc1nc([C@@H](C)O)cc2cnc(Nc3ccc4c(n3)CCN(C(=O)OCCN(C)C)C4)nc12` [Compound 1141]: no less than 100 nM and less than 10 nM.
As to `CCNc1nc([C@@H](C)O)cc2cnc(Nc3ccc4c(n3)CCN(C(=O)OCCN(C)C)C4)nc12` [Compound 1142], the IC50 at CDK2/cyclin A2 is no less than 100 nM; against CDK4/cyclin D3, less than 10 nM.
`C[C@@H](O)c1cc2cnc(Nc3ccc4c(n3)CCN(C(=O)OCCN(C)C)C4)nc2c(N[C@H]2CCCOC2)n1` [Compound 1143]: the half-inhibitory concentration (IC50) was no less than 100 nM against CDK2/cyclin A2 and less than 10 nM against CDK4/cyclin D3.
For the compound `CO[C@H](C)c1cc2cnc(Nc3ccc4c(n3)CCN(C(=O)CO)C4)nc2c(N[C@H]2CC[C@H](O)CC2)n1` [Compound 1144], the IC50 was no less than 100 nM against CDK2/cyclin A2 and less than 10 nM against CDK4/cyclin D3.
Turning to `O=C(CO)N1CCc2nc(Nc3ncc4cc(C5CCOC5)nc(N[C@H]5CC[C@H](O)CC5)c4n3)ccc2C1` (stereo partly drawn) [Compound 1145], the figures for the concentration for half-maximal inhibition (IC50) at CDK2/cyclin A2 and on CDK4/cyclin D3 were no less than 100 nM and less than 10 nM, respectively.
Turning to `CC1(c2cc3cnc(Nc4ccc5c(n4)CCN(C(=O)CO)C5)nc3c(N[C@H]3CC[C@H](O)CC3)n2)COC1` [Compound 1146], the figures for the half-inhibitory concentration (IC50) at CDK2/cyclin A2 and on CDK4/cyclin D3 were no less than 100 nM and less than 10 nM, respectively.
For `CCNc1nc([C@@H](C)O)cc2cnc(Nc3ccc(CN4CCC(CO)CC4)cn3)nc12` [Compound 1147], in that order: no less than 100 nM and less than 10 nM.
The matching figures for `CCCCNc1nc([C@@H](C)O)cc2cnc(Nc3ccc(CN4CCC(CO)CC4)cn3)nc12` [Compound 1148]: no less than 100 nM and less than 10 nM.
In the case of `C[C@@H](O)c1cc2cnc(Nc3ccc(CN4CCC(CO)CC4)cn3)nc2c(NCC2CC2)n1` [Compound 1149], the IC50 against CDK2/cyclin A2 was no less than 100 nM; against CDK4/cyclin D3, less than 10 nM.
For `C[C@@H](O)c1cc2cnc(Nc3ccc(CN4CCC(CO)CC4)cn3)nc2c(NC2CCC2)n1` [Compound 1150], in that order: no less than 100 nM and less than 10 nM.
As for `C[C@@H](O)c1cc2cnc(Nc3ccc(CN4CCC(CO)CC4)cn3)nc2c(N[C@H]2CC[C@H](O)CC2)n1` [Compound 1151], the IC50 against CDK2/cyclin A2 is no less than 100 nM; against CDK4/cyclin D3, less than 10 nM.
The matching figures for `C[C@@H](O)c1cc2cnc(Nc3ccc(CN4CCC(CO)CC4)cn3)nc2c(NCC2CCOCC2)n1` [Compound 1152]: no less than 100 nM and less than 10 nM.
The matching figures for `CO[C@H](C)c1cc2cnc(Nc3ccc4c(n3)CCN(CCO)C4)nc2c(N[C@H]2CC[C@H](O)CC2)n1` [Compound 1153]: no less than 100 nM and less than 10 nM.
For `OCCN1CCc2nc(Nc3ncc4cc(C5CCOC5)nc(N[C@H]5CC[C@H](O)CC5)c4n3)ccc2C1` (stereo partly drawn) [Compound 1154], in that order: no less than 100 nM and less than 10 nM.
Turning to `CC1(c2cc3cnc(Nc4ccc5c(n4)CCN(CCO)C5)nc3c(N[C@H]3CC[C@H](O)CC3)n2)COC1` [Compound 1155], the half-maximal inhibitory concentration (IC50) at CDK2/cyclin A2 is no less than 100 nM; against CDK4/cyclin D3 it was less than 10 nM.
The matching figures for `C[C@@H](O)c1cc2cnc(Nc3ccc(CN4CCC(CO)CC4)cn3)nc2c(N[C@H]2CCCOC2)n1` [Compound 1156]: no less than 100 nM and less than 10 nM.
For `CO[C@H](C)c1cc2cnc(Nc3ccc(CN4CCN(C(=O)C5CCCO5)CC4)cn3)nc2c(NC(C)C)n1` (stereo partly drawn) [Compound 1157], in that order: no less than 100 nM and 10 to 100 nM.
The matching figures for `CO[C@H](C)c1cc2cnc(Nc3ccc(CN4CCN(C(=O)C5CCOC5)CC4)cn3)nc2c(NC(C)C)n1` (stereo partly drawn) [Compound 1158]: no less than 100 nM and less than 10 nM.
For `CCCNc1nc([C@@H](C)O)cc2cnc(Nc3ccc(N4CCC(N(C)C)CC4)nn3)nc12` [Compound 1159], the IC50 at CDK2/cyclin A2 is no less than 100 nM; at CDK4/cyclin D3 it was less than 10 nM.
`CC(C)Nc1nc([C@@H](C)O)cc2cnc(Nc3ccc(C(=O)N4CCN(C)CC4)cn3)nc12` [Compound 1160]: the figures for the IC50 against CDK2/cyclin A2 and on CDK4/cyclin D3 were 10 to 100 nM and less than 10 nM, respectively.
`CC(C)Nc1nc([C@@H](C)O)cc2cnc(Nc3ccc(C(=O)N4CCC(N(C)C)CC4)cn3)nc12` [Compound 1161]: the IC50 on CDK2/cyclin A2 is 10 to 100 nM; against CDK4/cyclin D3, less than 10 nM.
For `CC(C)Nc1nc([C@@H](C)O)cc2cnc(Nc3ccc(C(=O)N4CC[C@H](N(C)C)C4)cn3)nc12` [Compound 1162], the 50% inhibitory concentration (IC50) is 10 to 100 nM on CDK2/cyclin A2 and less than 10 nM against CDK4/cyclin D3.
The matching figures for `CC(C)Nc1nc([C@@H](C)O)cc2cnc(Nc3ccc(C(=O)N4CC[C@@H](N(C)C)C4)cn3)nc12` [Compound 1163]: 10 to 100 nM and less than 10 nM.

The record behind these values is patent US10124004B2, “Pyrido[3,4-d]pyrimidine derivative and pharmaceutically acceptable salt thereof” (Teijin Pharma Limited, priority 2015, dated 2018).
